# Measured values taken from PubChem BioAssay AID1919002 (Molecular Pharmacology Branch, DTP, NCI, 2023).
# pIC50: −log10 of the molar value. Values joined by “and” are separate entries in the source; they are usually repeats but may differ in a detail not shown here. Equal values may be shown once.
# Test system: 743489-274-T-PDC complex spheroid growth
# Assay: Anticancer human tumor 743489-274-T-PDC patient-derived renal cell carcinoma cell line growth inhibition [AhR]
# Conditions: for viability, T/C: stronger effect = lower value
# Description: Multicellular complex tumor spheroid response to aryl hydrocarbon receptor antagonists in combination with a variety of drugs and investigational agents in selected tumor cell lines
# The current study was undertaken to assess response to aryl hydrocarbon receptor antagonists in combination with standard-of-care drugs and investigational agents in solid tumor complex spheroid models. Complex spheroids include a stromal component modeled by human endothelial cells (HUVEC) and fibroblasts modeled by human mesenchymal stem cells (MSCs). The concentration ranges selected for each drug and investigational agent were based upon clinically achievable concentrations if the clinical Cmax of the agent was known.
# Compounds. The drugs and investigational agents: BAY 2416964 (NSC825713), GNF351 (NSC835774), CH-223191 (NSC835775), CPI-455 (NSC825282), aza-TdCyd (NSC777586), decitabine (NSC127716), belinostat (NSC758774), entinostat (NSC756642), pevonedistat (NSC761192), tazemetostat (NSC777109), talazoparib (NSC765396), olaparib (NSC753686), selinexor (NSC780203), nedisertib (M3814, NSC802822), bortezomib (NSC756655), venetoclax (NSC766270), doxorubicin (NSC123127), elimusertib (BAY189344, NSC800525), ceralasertib (AZD6738, NSC777638), TAK-243 (NSC785004), alisertib (NSC759677), etoposide (NSC141540), topotecan (NSC609699), eribulin (NSC707389), gemcitabine (NSC613327), carboplatin (NSC241240), cisplatin (NSC119875), and SN-38 (NSC673596) were obtained from the National Cancer Institute (NCI) Developmental Therapeutics Program Chemical Repository (32). The FDA-approved anticancer drug set is available from the Developmental Therapeutics Program at https://dtp.cancer.gov/organization/dscb/obtaining/available plates.htm. […] The stock solutions were prepared in dimethyl sulfoxide (DMSO, Sigma-Aldrich, St. Louis, MO, cat. D2650), except for the platinum compounds which were prepared in saline (Quality Biological, Gaithersburg, MD, cat. 114-055-101), at 800-fold the tested concentration and stored at -70 degrees C prior to their use. All drugs and investigational agents were tested over a range starting from a high concentration at or near the clinical Cmax and decreasing in half-log increments. If the clinical Cmax for an agent had not been determined, the highest concentration tested was 10 microM (Table 1).
# Cell Culture. All cells were maintained in an incubator at 37 degrees C and 5% CO2 with 95% humidity. The PDC lines were cultured according to standard operating procedures established by the NCI PDMR (https://pdmr.cancer.gov). Briefly, all PDCs were thawed and cultured in Matrigel-coated flasks prepared with a working solution of 1X Ham's F-12 nutrient mix, without supplementation (Invitrogen, Waltham, MA, cat. 11765054), 100 U/mL penicillin-streptomycin (Invitrogen, cat. 15140122), and 2.5% Matrigel (Corning Inc., Corning, NY, cat. 354248) for the first three passages. All PDCs were cultured in complete DMEM/F-12 media containing advanced DMEM/F-12 (Invitrogen, cat. 12634028), 4.9% defined fetal bovine serum, heat inactivated (HyClone Laboratories Inc., Logan, UT, cat. SH30070.03HI), 389 ng/mL hydrocortisone (Sigma-Aldrich, cat. H4001), 9.7 ng/mL human EGF recombinant protein (Invitrogen, cat. PHG0313), 23.4 microg/mL adenine (Sigma-Aldrich, cat. A2786), 97.3 U/mL penicillin-streptomycin (Invitrogen, cat. 15140122), 1.9 mM L-glutamine (Invitrogen, cat. 25030081), and 9.7 microM Y-27632 dihydrochloride (Tocris Bioscience, Bristol, United Kingdom, cat. 1254). The PDCs were cultured in complete DMEM/F12 media without 10 microM Y-27632 dihydrochloride for at least two passages prior to the screen. The established cell lines NCI-H1341 and […] were cultured in DMEM/F-12, HEPES (Invitrogen, cat. 11330032), 5% defined fetal bovine serum (HyClone Laboratories Inc., cat. SH30070.03), ITS premix universal culture supplement [insulin (5 microg/mL), transferrin (5 microg/mL), and selenious acid (5 ng/mL)] […]
# [1] = curve of first compound, second compound 0.1 µM
# [2] = curve of first compound, second compound 0.316 µM
# [3] = curve of first compound, second compound 1 µM
# [4] = curve of first compound, second compound 3.16 µM
# [5] = curve of first compound, second compound 10 µM
# 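Also: spheroids exposed to agents for 7 days before readout.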
# 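For viability, T/C in this document: 100% = DMSO vehicle control wells.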
compound,measurement,setting,value
Nc1ccn(C2OC(CO)C(O)C2(F)F)c(=O)n1 (stereo not drawn),"viability, T/C",compound 0.0316 µM,92.4% and 67.2% and 87.8%
same,"viability, T/C",compound 0.1 µM,73.3% and 58.7% and 72.8%
same,"viability, T/C",compound 0.316 µM,69.8% and 60.6% and 73.5%
same,"viability, T/C",compound 1 µM,63% and 53.5% and 70.8%
same,"viability, T/C",compound 3.16 µM,71.4% and 61.4% and 66.6%
same,"viability, T/C",compound 10 µM,73.7% and 62.2% and 66.3%
same,pIC50,curve of compound,< 5.00
COc1cc(Nc2ncc3c(n2)-c2ccc(Cl)cc2C(c2c(F)cccc2OC)=NC3)ccc1C(=O)O,"viability, T/C",compound 0.0316 µM,106% and 98.6% and 103%
same,"viability, T/C",compound 0.1 µM,105% and 95.3% and 116%
same,"viability, T/C",compound 0.316 µM,92% and 95.6% and 98.8%
same,"viability, T/C",compound 1 µM,91.3% and 90.4% and 99.3%
same,"viability, T/C",compound 3.16 µM,90.3% and 92.1% and 91.2%
same,"viability, T/C",compound 10 µM,102% and 87.5% and 94.5%
same,pIC50,curve of compound,< 5.00
COc1cc(C2c3cc4c(cc3C(OC3OC5COC(C)OC5C(O)C3O)C3COC(=O)C23)OCO4)cc(OC)c1O (stereo not drawn),"viability, T/C",compound 0.0316 µM,98.8% and 103% and 94.7%
same,"viability, T/C",compound 0.1 µM,105% and 103% and 102%
same,"viability, T/C",compound 0.316 µM,95.7% and 114% and 106%
same,"viability, T/C",compound 1 µM,94.6% and 100% and 98.3%
same,"viability, T/C",compound 3.16 µM,95.8% and 108% and 98.9%
same,"viability, T/C",compound 10 µM,80% and 91.7% and 92.8%
same,pIC50,curve of compound,< 5.00
CC(C)CC(NC(=O)C(Cc1ccccc1)NC(=O)c1cnccn1)B(O)O (stereo not drawn) + CC(CO)NC(=O)c1cc(-c2ccc(Cl)cc2)nn(-c2cnn(C)c2)c1=O,pIC50,[1],7.67
same,pIC50,[2],7.67
same,pIC50,[3],7.70
same,pIC50,[4],7.74
same,pIC50,[5],7.78
same,"viability, T/C","second compound 0.1 µM, first compound 0.000949 µM",106%
same,"viability, T/C","second compound 0.1 µM, first compound 0.003 µM",102%
same,"viability, T/C","second compound 0.1 µM, first compound 0.00949 µM",104%
same,"viability, T/C","second compound 0.1 µM, first compound 0.03 µM",27.3%
same,"viability, T/C","second compound 0.1 µM, first compound 0.0949 µM",10.7%
same,"viability, T/C","second compound 0.1 µM, first compound 0.3 µM",4.68%
same,"viability, T/C","second compound 0.316 µM, first compound 0.000949 µM",90.2%
same,"viability, T/C","second compound 0.316 µM, first compound 0.003 µM",102%
same,"viability, T/C","second compound 0.316 µM, first compound 0.00949 µM",102%
same,"viability, T/C","second compound 0.316 µM, first compound 0.03 µM",30.3%
same,"viability, T/C","second compound 0.316 µM, first compound 0.0949 µM",11.1%
same,"viability, T/C","second compound 0.316 µM, first compound 0.3 µM",4.81%
same,"viability, T/C","second compound 1 µM, first compound 0.000949 µM",90.5%
same,"viability, T/C","second compound 1 µM, first compound 0.003 µM",104%
same,"viability, T/C","second compound 1 µM, first compound 0.00949 µM",94.9%
same,"viability, T/C","second compound 1 µM, first compound 0.03 µM",24.6%
same,"viability, T/C","second compound 1 µM, first compound 0.0949 µM",9.8%
same,"viability, T/C","second compound 1 µM, first compound 0.3 µM",4.5%
same,"viability, T/C","second compound 3.16 µM, first compound 0.000949 µM",94.3%
same,"viability, T/C","second compound 3.16 µM, first compound 0.003 µM",96.7%
same,"viability, T/C","second compound 3.16 µM, first compound 0.00949 µM",87.1%
same,"viability, T/C","second compound 3.16 µM, first compound 0.03 µM",21.2%
same,"viability, T/C","second compound 3.16 µM, first compound 0.0949 µM",10.7%
same,"viability, T/C","second compound 3.16 µM, first compound 0.3 µM",3.25%
same,"viability, T/C","second compound 10 µM, first compound 0.000949 µM",98%
same,"viability, T/C","second compound 10 µM, first compound 0.003 µM",111%
same,"viability, T/C","second compound 10 µM, first compound 0.00949 µM",85.4%
same,"viability, T/C","second compound 10 µM, first compound 0.03 µM",12.6%
same,"viability, T/C","second compound 10 µM, first compound 0.0949 µM",10.3%
same,"viability, T/C","second compound 10 µM, first compound 0.3 µM",4.28%
Cn1ncnc1C1c2n[nH]c(=O)c3cc(F)cc(c23)NC1c1ccc(F)cc1 (stereo not drawn),"viability, T/C",compound 0.000316 µM,100% and 101% and 102%
same,"viability, T/C",compound 0.001 µM,105% and 111% and 108%
same,"viability, T/C",compound 0.00316 µM,95.8% and 107% and 98.2%
same,"viability, T/C",compound 0.01 µM,91.2% and 103% and 108%
same,"viability, T/C",compound 0.0316 µM,97.2% and 95.4% and 95.6%
same,"viability, T/C",compound 0.1 µM,103% and 94% and 99.3%
same,pIC50,curve of compound,< 7.00
Nc1ncn(C2CC(O)C(CO)O2)c(=O)n1 (stereo not drawn) + CC(CO)NC(=O)c1cc(-c2ccc(Cl)cc2)nn(-c2cnn(C)c2)c1=O,pIC50,[1],< 6.00
same,pIC50,[2],< 6.00
same,pIC50,[3],< 6.00
same,pIC50,[4],< 6.00
same,pIC50,[5],< 6.00
same,"viability, T/C","second compound 0.1 µM, first compound 0.00316 µM",88.6%
same,"viability, T/C","second compound 0.1 µM, first compound 0.01 µM",93.4%
same,"viability, T/C","second compound 0.1 µM, first compound 0.0316 µM",98.4%
same,"viability, T/C","second compound 0.1 µM, first compound 0.1 µM",87.5%
same,"viability, T/C","second compound 0.1 µM, first compound 0.316 µM",99.4%
same,"viability, T/C","second compound 0.1 µM, first compound 1 µM",91.4%
same,"viability, T/C","second compound 0.316 µM, first compound 0.00316 µM",80.4%
same,"viability, T/C","second compound 0.316 µM, first compound 0.01 µM",89.9%
same,"viability, T/C","second compound 0.316 µM, first compound 0.0316 µM",91%
same,"viability, T/C","second compound 0.316 µM, first compound 0.1 µM",98%
same,"viability, T/C","second compound 0.316 µM, first compound 0.316 µM",84.5%
same,"viability, T/C","second compound 0.316 µM, first compound 1 µM",85.3%
same,"viability, T/C","second compound 1 µM, first compound 0.00316 µM",94.8%
same,"viability, T/C","second compound 1 µM, first compound 0.01 µM",93.2%
same,"viability, T/C","second compound 1 µM, first compound 0.0316 µM",89.9%
same,"viability, T/C","second compound 1 µM, first compound 0.1 µM",94.7%
same,"viability, T/C","second compound 1 µM, first compound 0.316 µM",101%
same,"viability, T/C","second compound 1 µM, first compound 1 µM",88.6%
same,"viability, T/C","second compound 3.16 µM, first compound 0.00316 µM",95.2%
same,"viability, T/C","second compound 3.16 µM, first compound 0.01 µM",85.2%
same,"viability, T/C","second compound 3.16 µM, first compound 0.0316 µM",96%
same,"viability, T/C","second compound 3.16 µM, first compound 0.1 µM",92.3%
same,"viability, T/C","second compound 3.16 µM, first compound 0.316 µM",85%
same,"viability, T/C","second compound 3.16 µM, first compound 1 µM",84.3%
same,"viability, T/C","second compound 10 µM, first compound 0.00316 µM",88.2%
same,"viability, T/C","second compound 10 µM, first compound 0.01 µM",96%
same,"viability, T/C","second compound 10 µM, first compound 0.0316 µM",88.7%
same,"viability, T/C","second compound 10 µM, first compound 0.1 µM",93.9%
same,"viability, T/C","second compound 10 µM, first compound 0.316 µM",82.9%
same,"viability, T/C","second compound 10 µM, first compound 1 µM",107%
